In patent publication US6376175B1, “Methods of discovering chemicals capable of functioning as gene expression modulators” (OSI Pharmaceuticals, Inc., priority 1989, dated 2002):
Read-outs that look alike come from different tables or passages of the source.

Columns and labels:
[1] = test system: human G-CSF promoter; format: cell-based; conditions: 7-hour incubation, serum-free media
Excerpt: A human bladder carcinoma cell line (U5637, ATCC number HTB 9) was used for transfection of plasmids containing the human Granulocyte-Colony Stimulating Factor (G-CSF) promoter (see below) and was maintained in RPMI medium supplemented with 10% FCS. For HTP screening, transfected 5637 clones were transferred to a serum free defined medium identical to that used for the NIH/3T3 clones.
The sequences of OL-1, OL-2 and OL-5 recognize the G-CSF promoter region, OL-4 recognizes the first intron/exon junction and OL-3 recognizes sequences within the second exon (32). One of the clones isolated from the leukocyte library using these oligonucleotide probes contains a 3.5 kb SalI-BamHI fragment of G-CSF genomic sequence consisting of 3.3 kb of promoter sequence and two hundred base pairs of the coding region. This fragment was inserted into the vector pGEM-7-Zf (Promega, Madison, Wis.) which had previously been digested with SalI/BamHI, resulting in the vector pJM710 (FIG. 7). pJM710 was then digested with PstI, and the resulting 1.6 kb fragment containing G-CSF upstream sequences and the first 15 bases of the G-CSF leader sequence was inserted into the PstI site of pGEM5-Luci (FIG. 8) to generate pG-Lucl (FIG. 9). This construct was then used for transfection of 5637 human bladder carcinoma cells as described below in section E3. pGEM5-Luci (FIG. 8) had previously been constructed by inserting the […]/SalI fragment from pSVLuci (FIG. 2) containing the luciferase coding sequence and the SV40 late polyadenylation signal into pGEM 5-Zf (Promega, Madison Wis.) digested with XhoI/SalI.
pG-LUC1 (FIG. 9) and pRSVNeo were co-transfected into 5637 human bladder carcinoma cells as described above. Selection of G418 resistant clones was as described above except for using a concentration of 0.1 mg/ml G418. Analysis of cell clones was performed as above except that a known inducer of G-CSF expression (1-5 µg/ml lipopolysaccharide (LPS), E. coli serotype 055:b5, Difco, Detroit, Mich. or Sigma, St. Louis, Mo.) was used in place of dexamethasone.
Cell plating: Dynatech Microlite 96 well plates were custom pretreated for cell attachment by Dynatech Laboratories, Inc. (Chantilly, Va.). Alternatively, the 96 well plates were treated with 50 µl per well of human fibronectin (hFN, 15 µg/ml in PBS, Collaborative Research, Bedford, Mass.) overnight at 37 C. hFN-treated plates were washed with PBS using an Ultrawash 2 Microplate Washer (Dynatech Labs), to remove excess hFN prior to cell plating. M10, 532, and G21 cells maintained in their respective serum media (with 0.2 mg/ml G418) were washed with PBS, harvested by trypsinization, and counted using a hemocytometer and the Trypan Blue exclusion method according to protocols provided by Sigma, St. Louis, Mo. Chemical Company. Cells were then diluted into serum free defined media (with 0.2 mg/ml G418), and 0.2 ml of cell suspension per well was plated onto Dynatech treated plates (532 and G21) or hFN-treated plates (M10) using a Cetus Pro/Pette (Cetus, Emeryville Calif.). Plates were incubated overnight at 37 C in a humidified 5% CO2 atmosphere.
Addition of Chemicals to Cells: Chemicals from the Oncogene Science file were dissolved in DMSO at concentrations of 3-30 mg/ml. A liquid handling laboratory work station (RSP 5052, Tecan U.S. Chapel Hill, N.C.) was used to dilute the chemicals (three dilutions; 5 fold, 110 fold, and 726 fold). 10 11 of each dilution were added to each of quadruplicate samples of cells contained in the wells of 96-well Dyantech Microlite Plates. […]

[2] = test system: GM-CSF promoter; assay: GM-CSF promoter-luciferase induction by known inducers, clones GM 1073, GM 1088, GM 1105; format: cell-based, human; conditions: for luciferase expression induction, clone 1088: GM-CSF reporter clone GM 1088; for luciferase expression induction, clone 1105: GM-CSF reporter clone GM 1105
Procedure: All routine subcloning procedures were performed as described by Maniatis et al. (1982), (28) unless otherwise noted. The about 0.7 kb HindIII/RsaI fragment of the GM-CSF clone (FIG. 20) was inserted into pUC 18 previously digested with HindIII/HincII. The about 0.7 kb HindIII/SmaI fragment was then isolated from the resulting vector and cloned into pUV 100 digested previously with HindIII/SnaBI, thereby generating pGMLUCI (FIG. 22.) In order to correctly fuse the GM-CSF ATG with the coding region of luciferase, four oligonucleotides (FIG. 21) were synthesized, phosphorylated, annealed, ligated, and inserted into pUC19 previously digested with Eco RI/XbaI, generating pGM-1 (FIG. 22). pGM-1 was then sequences (Sequenase Kit, US Biochemicals, Cleveland, Ohio) using the M13 forward (U.S. Biochem.) and reverse primers (Pharmacia, Piscataway, N.J.) to ensure that there were no mutations in the synthesized oligonucleotides. The about 1.8 kb BstEII/ScaI fragment from pGM-1 was then isolated and ligated to about 1.5 kb BstEII/ScaI fragment from pGMLUCI to generate pGM-2 (FIG. 22). pGM-2 was then digested with Hind III/XbaI and about 0.7 kb fragment was cloned into pUV 102 and pUV 103 previously digested with HindIII/XbaI. This generated pGMLS102 and pGMLS103 (FIG. 22), which contain 663 bp of GM-CSF sequence 5′ of the ATG fused directly to the second (correct) ATG of luciferase and the rest of the luciferase coding region. An additional about 1.4 kb of upstream sequences were cloned into this construct by isolating the about 1.4 kb SalI/HindIII fragment from the GM-CSF clone (FIG. 20), blunting the SalI end by filling in with Klenow polymerase, and inserting the fragment into pGMLS102 and pGMSL103 previously digested with HindIII/SnaBI. This step generated pGMLL102 and PGMLL103, respectively (FIG. 23). Finally, the pTKNEO2 and PTKNEO3 about 1.8 kb SfiI fragments were cloned directly into the SfiI site of pGMLL103 to generated pGMLL103 NEO2 and pGMLL103 NEO3.
6 clones generated by electroporation with pGMLL103 NEO3 (FIG. 23; Materials and Methods, section D.2) were subjected to further analysis as described above: GM 1073 (10 ug; circular); GM 1081, 1088 and 1090 (5 ug; linear); and GM 1098 and 1105 (10 ug; linear).
Promoter induction experiments were also conducted with the GM-CSF reporter cell lines GM 1073, GM 1088 and GM 1105, which were all shown to contain correctly inserted constructs (see above). […] Luciferase expression of clones 1088 and 1105 was induced by PMA 2.8 fold and 2 fold, respectively, while TNF-alpha induced both clones 2 fold.

| Compound | increase of luciferase expression directed by the G-CSF promoter, G 21 cells ([1]; absence of EGF) [fold] | increase of luciferase expression directed by the G-CSF promoter, G 21 cells ([1]; presence of EGF) [fold] | luciferase expression induction, clone 1088 [2] [fold] | luciferase expression induction, clone 1105 [2] [fold] | GM-CSF promoter induction, GM 1073 cells ([2]; 10.5 hours, 20 ng/ml PMA, serum-containing media) [fold] | GM-CSF promoter induction, GM 1073 cells ([2]; PMA, serum-free media) [fold] |
| --- | --- | --- | --- | --- | --- | --- |
| TNF-alpha | 2.1 | 2.8 | 2 | 2 |  |  |
| CCCCCCCCCCCCCC(=O)O[C@@H]1[C@@H](C)[C@@]2(O)[C@@H](C=C(CO)C[C@]3(O)C(=O)C(C)=C[C@@H]23)[C@@H]2C(C)(C)[C@]12OC(C)=O [PMA, phorbo-myristate-acetate, reference compound] | 34.6 | 24.6 | 2.8 | 2 | 3.4 | 7.5 |
